Consider nine molecules from ChEMBL document CHEMBL2203055, “From α4β2 Nicotinic Ligands to the Discovery of σ1 Receptor Ligands: Pharmacophore Analysis and Rational Design” (ACS Med Chem Lett, 2012).

Experiment [1] addresses Sigma non-opioid intracellular receptor 1 (Homo sapiens, UniProt Q99720). The experiment can be described thus: Binding affinity to sigma 1 receptor.
Experiment [2] has as its target Sigma non-opioid intracellular receptor 1 (Rattus norvegicus) (UniProt Q9R0C9). The experiment can be described thus: Displacement of [3H]pentazocine from sigma 1 receptor in rat brain membrane at 10 uM after 2.5 hrs by microbeta scintillation counting analysis. Type of experiment: cell membranes.
The nature of experiment [3]: Displacement of [3H]DTG from sigma 2 receptor in rat PC12 cell membrane after 2 hrs by microbeta scintillation counting analysis. The conditions noted are these: pc-12. Type of experiment: cell membranes.
Experiment [4] addresses Sigma non-opioid intracellular receptor 1 (Rattus norvegicus, UniProt Q9R0C9). The experiment can be described thus: Displacement of [3H]pentazocine from sigma 1 receptor in rat brain membrane after 2.5 hrs by microbeta scintillation counting analysis. Type of experiment: cell membranes.
The next experiment has as its system PC-12. Briefly: Displacement of [3H]DTG from sigma 2 receptor in rat PC12 cell membrane at 10 uM after 2 hrs by microbeta scintillation counting analysis. Type of experiment: cell membranes.
The target in experiment [5] is T1, Neuronal acetylcholine receptor; alpha4/beta2 (Rattus norvegicus, UniProt P09483+P12390). Briefly: Displacement of [3H]epibatidine from alpha4beta2* nAChR in rat forebrain after 4 hrs by liquid scintillation counting analysis.
T1 sequence (P09483 whole entry): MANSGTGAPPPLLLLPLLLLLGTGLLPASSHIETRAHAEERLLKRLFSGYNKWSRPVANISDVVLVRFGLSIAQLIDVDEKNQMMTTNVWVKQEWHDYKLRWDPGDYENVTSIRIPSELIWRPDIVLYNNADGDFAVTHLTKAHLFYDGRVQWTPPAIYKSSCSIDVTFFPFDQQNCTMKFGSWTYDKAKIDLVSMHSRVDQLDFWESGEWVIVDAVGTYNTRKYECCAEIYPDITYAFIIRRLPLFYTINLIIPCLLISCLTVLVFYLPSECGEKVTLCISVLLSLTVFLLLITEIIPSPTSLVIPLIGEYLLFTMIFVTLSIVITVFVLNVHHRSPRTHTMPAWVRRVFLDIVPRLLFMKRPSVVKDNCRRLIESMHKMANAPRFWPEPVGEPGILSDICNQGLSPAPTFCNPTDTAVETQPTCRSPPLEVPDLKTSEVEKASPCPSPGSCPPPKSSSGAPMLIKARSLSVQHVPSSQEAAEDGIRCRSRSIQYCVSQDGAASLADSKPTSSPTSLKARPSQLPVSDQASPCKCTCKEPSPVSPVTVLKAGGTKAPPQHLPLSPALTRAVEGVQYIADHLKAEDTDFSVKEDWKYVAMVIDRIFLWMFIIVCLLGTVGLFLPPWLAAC
T1 sequence (P12390 whole entry): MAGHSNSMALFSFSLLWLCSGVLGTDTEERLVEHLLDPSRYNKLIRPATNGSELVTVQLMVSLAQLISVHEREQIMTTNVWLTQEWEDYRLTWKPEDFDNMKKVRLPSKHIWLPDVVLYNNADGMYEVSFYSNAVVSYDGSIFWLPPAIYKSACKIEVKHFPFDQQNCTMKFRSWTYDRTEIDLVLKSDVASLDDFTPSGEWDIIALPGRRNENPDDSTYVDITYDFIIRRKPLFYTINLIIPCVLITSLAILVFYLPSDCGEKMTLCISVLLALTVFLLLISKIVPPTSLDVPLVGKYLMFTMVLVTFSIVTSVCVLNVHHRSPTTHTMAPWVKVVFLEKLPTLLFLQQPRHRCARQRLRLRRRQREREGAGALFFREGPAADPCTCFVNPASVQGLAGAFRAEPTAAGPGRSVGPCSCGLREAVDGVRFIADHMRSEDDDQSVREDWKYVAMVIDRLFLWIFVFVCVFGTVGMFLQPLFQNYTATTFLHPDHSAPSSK
The target in experiment [6] is Neuronal acetylcholine receptor; alpha3/beta2 (Rattus norvegicus, UniProt P04757+P12390). Briefly: Displacement of [3H]epibatidine from alpha3beta2 nAChR after 4 hrs by liquid scintillation counting analysis. Type of experiment: protein-complex assay.
Neuronal acetylcholine receptor; alpha3/beta2, sequence (P04757 whole entry): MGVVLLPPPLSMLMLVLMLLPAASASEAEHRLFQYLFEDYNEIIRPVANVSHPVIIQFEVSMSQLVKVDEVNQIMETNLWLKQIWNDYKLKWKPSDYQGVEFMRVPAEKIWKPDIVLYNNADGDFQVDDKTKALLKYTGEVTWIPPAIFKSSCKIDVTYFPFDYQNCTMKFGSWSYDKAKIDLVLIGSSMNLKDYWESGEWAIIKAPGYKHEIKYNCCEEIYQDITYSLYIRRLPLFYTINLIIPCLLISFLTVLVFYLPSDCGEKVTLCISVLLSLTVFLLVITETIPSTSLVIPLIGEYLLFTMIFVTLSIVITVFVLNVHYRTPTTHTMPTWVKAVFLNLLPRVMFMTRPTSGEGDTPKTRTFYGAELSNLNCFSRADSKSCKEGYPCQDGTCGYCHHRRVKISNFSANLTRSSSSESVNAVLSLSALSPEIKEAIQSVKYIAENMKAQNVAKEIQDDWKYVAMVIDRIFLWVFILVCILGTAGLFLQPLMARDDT
Neuronal acetylcholine receptor; alpha3/beta2, sequence (P12390 whole entry): as the sequence (P12390 whole entry) above
The target of experiment [7] is Neuronal acetylcholine receptor; alpha3/beta4 (Rattus norvegicus, UniProt P04757+P12392). The experiment can be described thus: Displacement of [3H]epibatidine from alpha3beta4 nAChR after 4 hrs by liquid scintillation counting analysis. Type of experiment: protein-complex assay.
Neuronal acetylcholine receptor; alpha3/beta4, sequence (P04757 whole entry): as the sequence (P04757 whole entry) above
Neuronal acetylcholine receptor; alpha3/beta4, sequence (P12392 whole entry): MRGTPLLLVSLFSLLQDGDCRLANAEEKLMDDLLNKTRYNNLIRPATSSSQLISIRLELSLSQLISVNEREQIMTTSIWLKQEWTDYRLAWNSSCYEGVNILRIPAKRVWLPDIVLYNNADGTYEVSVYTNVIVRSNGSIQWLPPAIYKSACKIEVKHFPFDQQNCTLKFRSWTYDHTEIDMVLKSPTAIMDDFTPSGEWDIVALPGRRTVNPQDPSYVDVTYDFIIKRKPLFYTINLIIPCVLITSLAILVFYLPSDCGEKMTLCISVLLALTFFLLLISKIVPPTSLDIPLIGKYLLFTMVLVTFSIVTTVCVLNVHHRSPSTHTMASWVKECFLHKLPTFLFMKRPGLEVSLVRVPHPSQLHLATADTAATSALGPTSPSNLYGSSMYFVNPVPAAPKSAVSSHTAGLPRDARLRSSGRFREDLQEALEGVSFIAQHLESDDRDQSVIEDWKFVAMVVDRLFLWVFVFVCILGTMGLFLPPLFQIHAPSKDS
The target in experiment [8] is Neuronal acetylcholine receptor; alpha2/beta4 (Rattus norvegicus, UniProt P12389+P12392). Briefly: Displacement of [3H]epibatidine from alpha2beta4 nAChR after 4 hrs by liquid scintillation counting analysis. Type of experiment: protein-complex assay.
Neuronal acetylcholine receptor; alpha2/beta4, sequence (P12389 whole entry): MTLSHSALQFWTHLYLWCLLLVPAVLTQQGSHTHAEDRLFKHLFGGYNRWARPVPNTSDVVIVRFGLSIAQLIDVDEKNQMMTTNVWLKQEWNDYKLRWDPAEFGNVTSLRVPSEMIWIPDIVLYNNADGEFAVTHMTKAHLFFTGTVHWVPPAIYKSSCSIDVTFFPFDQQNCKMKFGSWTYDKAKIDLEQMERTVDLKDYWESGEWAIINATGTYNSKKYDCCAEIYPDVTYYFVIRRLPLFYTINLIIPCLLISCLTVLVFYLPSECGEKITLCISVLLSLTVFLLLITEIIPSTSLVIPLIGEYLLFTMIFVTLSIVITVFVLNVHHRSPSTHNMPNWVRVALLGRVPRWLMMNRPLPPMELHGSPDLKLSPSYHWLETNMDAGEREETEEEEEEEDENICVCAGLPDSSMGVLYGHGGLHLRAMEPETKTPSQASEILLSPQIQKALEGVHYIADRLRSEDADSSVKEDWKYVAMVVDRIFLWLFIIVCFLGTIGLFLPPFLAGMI
Neuronal acetylcholine receptor; alpha2/beta4, sequence (P12392 whole entry): as the sequence (P12392 whole entry) above
The target in experiment [9] is Neuronal acetylcholine receptor; alpha4/beta4 (Rattus norvegicus, UniProt P09483+P12392). The experiment can be described thus: Displacement of [3H]epibatidine from alpha4beta4 nAChR after 4 hrs by liquid scintillation counting analysis. Type of experiment: protein-complex assay.
Neuronal acetylcholine receptor; alpha4/beta4, sequence (P09483 whole entry): as the sequence (P09483 whole entry) above
Neuronal acetylcholine receptor; alpha4/beta4, sequence (P12392 whole entry): as the sequence (P12392 whole entry) above
Experiment [10] has as its target T1, Neuronal acetylcholine receptor; alpha4/beta2. The experiment can be described thus: Displacement of [3H]epibatidine from alpha4beta2 nAChR after 4 hrs by liquid scintillation counting analysis. Type of experiment: protein-complex assay.

Sigma non-opioid intracellular receptor 1 (Rattus norvegicus, UniProt Q9R0C9), sequence (Q9R0C9 whole entry): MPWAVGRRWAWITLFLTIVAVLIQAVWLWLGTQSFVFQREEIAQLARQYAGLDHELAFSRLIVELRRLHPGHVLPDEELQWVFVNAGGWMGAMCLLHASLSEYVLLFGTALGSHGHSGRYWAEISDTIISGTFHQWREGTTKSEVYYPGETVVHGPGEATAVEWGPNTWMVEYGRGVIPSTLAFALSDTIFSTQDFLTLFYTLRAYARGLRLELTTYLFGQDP
Sigma non-opioid intracellular receptor 1 (Rattus norvegicus), sequence (Q9R0C9 whole entry): as above
Sigma non-opioid intracellular receptor 1 (Homo sapiens, UniProt Q99720), sequence (Q99720 whole entry): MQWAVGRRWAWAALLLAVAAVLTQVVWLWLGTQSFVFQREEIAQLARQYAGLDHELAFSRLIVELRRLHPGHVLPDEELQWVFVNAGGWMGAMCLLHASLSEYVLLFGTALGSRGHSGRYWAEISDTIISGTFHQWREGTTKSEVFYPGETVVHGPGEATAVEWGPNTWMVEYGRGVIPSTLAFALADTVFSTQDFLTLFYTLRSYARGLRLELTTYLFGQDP

Molecule `COC(=O)[C@@]1(c2ccccc2)C[C@H]1CN(C)C12CC3CC(CC(C3)C1)C2` had an inhibition constant (Ki) in [1] of 0.0021 µM.

As to `c1c(OC[C@@H]2CCN2)noc1COCC1CC1`, in experiment [2], the Activity is under 50%. This molecule also showed a Ki in [3] of 0.369 µM.

In experiment [4], `c1ccc(OCc2cc(OC[C@@H]3CCN3)on2)cc1` yielded a Ki of 0.328 µM. The same molecule had an Activity in the experiment on PC-12 of under 50%.

In experiment [4], `c1ccc(OCc2cc(OC[C@@H]3CCCN3)on2)cc1` came in with an inhibition constant Ki of 0.0042 µM. The same molecule returned an Activity with PC-12 of under 50%.

`Cc1cc(OC[C@@H]2CCN2)no1`: the Activity (in experiment [2]; with PC-12) was under 50% throughout.

As for `COCc1cc(OC[C@@H]2CCN2)no1`, the Activity (in [2]; in the experiment with PC-12) was under 50% each time.

For `Clc1cncc(OCc2cc(OC[C@@H]3CCN3)no2)c1`, the inhibitory constant (Ki) in [4] is 0.103 µM; in experiment [5], over 10 µM; in experiment [6] it was over 10 µM; in experiment [7] it was 6.1 µM; in experiment [8] it was 1.82 µM; in experiment [9] it was 5.58 µM. In experiment [10], this molecule registered a Ki of 2.22 µM. For the same molecule, the Activity in the experiment with PC-12 was under 50%.

As to `OCc1cc(OC[C@@H]2CCN2)on1`, the Activity (in experiment [2]; with PC-12) was under 50% in each case.

Turning to `Cc1cc(OC[C@@H]2CCN2)on1`, the Activity (in experiment [2]; with PC-12) was under 50% each time.
